According to PubChem BioAssay (NCI):
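Assay format: 96-well plates, 48-hour exposure. GI50 = concentration required for 50% inhibition of growth. At the TGI there is no net growth.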

How the values were obtained:
Assay in all cases: NCI-60 cell line screen, 48 h
HCC-2998 colon = system: HCC-2998 colon
SN12C renal = system: SN12C renal
U251 CNS = system: U251 CNS
UO-31 renal = system: UO-31 renal
HOP-62 NSCLC = system: HOP-62 NSCLC
NCI-H23 lung = system: NCI-H23 lung
OVCAR-3 ovarian = system: OVCAR-3 ovarian
SF-295 CNS = system: SF-295 CNS
MDA-MB-231 breast = system: MDA-MB-231 breast
MCF7 breast = system: MCF7 breast

| SMILES | GI50 (HCC-2998 colon) | TGI (HCC-2998 colon) | GI50 (SN12C renal) | TGI (SN12C renal) | GI50 (U251 CNS) | TGI (U251 CNS) | GI50 (UO-31 renal) | TGI (UO-31 renal) | GI50 (HOP-62 NSCLC) | TGI (HOP-62 NSCLC) | GI50 (NCI-H23 lung) | TGI (NCI-H23 lung) | GI50 (OVCAR-3 ovarian) | TGI (OVCAR-3 ovarian) | TGI (SF-295 CNS) | GI50 (MDA-MB-231 breast) | TGI (MDA-MB-231 breast) | GI50 (MCF7 breast) | TGI (MCF7 breast) | GI50 (SF-295 CNS) |
| --- | --- | --- | --- | --- | --- | --- | --- | --- | --- | --- | --- | --- | --- | --- | --- | --- | --- | --- | --- | --- |
| CC(=O)[CH-]C(=O)c1ccccc1.CC(=O)[CH-]C(=O)c1ccccc1.CC(C)CCCC(C)[C@H]1CCC2[C@@H]3CC=C4C[C@@H]([O-])CC[C@]4(C)C3CC[C@@]21C.CC(C)CCCC(C)[C@H]1CCC2[C@@H]3CC=C4C[C@@H]([O-])CC[C@]4(C)C3CC[C@@]21C.[Ti+4] (stereo partly drawn) | > 100 µM | > 100 µM | > 100 µM | > 100 µM | > 100 µM | > 100 µM | > 100 µM | > 100 µM | > 100 µM | > 100 µM | > 100 µM | > 100 µM | > 100 µM | > 100 µM |  |  |  |  |  |  |
| CC1=C[C@]2(O)C(=O)[C@H](C)C[C@H]3[C@@H](CC[C@@](C)(O)/C=C\2C1=O)C3(C)C |  | > 69.5 µM |  | 41.5 µM |  | 52.7 µM |  | > 100 µM |  | > 70.3 µM |  | 72.6 µM |  | 38.1 µM | 75.8 µM |  |  |  |  |  |
| O=C1Cc2c([nH]c3ccccc23)-c2ccccc2N1 |  | 41.2 µM |  | > 100 µM |  | > 100 µM |  | > 100 µM |  | 97.7 µM |  | 61.1 µM |  | 68.2 µM | > 100 µM |  |  |  |  |  |
| CC1=C(C(=O)Nc2cc(=O)n(C)c(=O)n2C)C(c2cccc([N+](=O)[O-])c2)C(C(=O)Nc2cc(=O)n(C)c(=O)n2C)=C(C)N1 |  | > 100 µM |  | > 100 µM |  | > 100 µM |  | > 100 µM |  | > 100 µM |  | > 100 µM |  | > 100 µM | > 100 µM |  |  |  |  |  |
| C#CCOCn1cnc2c(Sc3c([N+](=O)[O-])ncn3C)ncnc21 |  | > 100 µM |  | > 100 µM |  | > 100 µM |  | > 100 µM |  | > 100 µM |  | > 100 µM |  | > 100 µM | > 100 µM |  |  |  |  |  |
| CCC(=O)Nc1ccccc1C#C/C=C\C#Cc1ccccc1SC | 5.09 µM | 27.3 µM | 26.7 µM | > 100 µM | 6.43 µM | > 100 µM | 0.838 µM | 28.6 µM | 10 µM | > 100 µM | 22.7 µM | > 100 µM | 8.87 µM | 80.6 µM |  | 7.92 µM | > 100 µM | 3.39 µM | 29.7 µM |  |
| CCOC(=O)Cc1ccc2c(c1O)C(=O)c1c(ccc(CC(=O)OCC)c1O)C2=O |  | > 100 µM |  | > 100 µM |  | > 100 µM |  | > 100 µM |  | > 100 µM |  | > 100 µM |  | > 100 µM | > 100 µM |  |  |  |  |  |
| c1cc(N2CCCN(c3ccc(C4=NCCCN4)cc3)CC2)ccc1C1=NCCCN1 |  |  |  |  | 65.9 µM | > 100 µM | > 100 µM | > 100 µM | > 100 µM | > 100 µM | > 100 µM | > 100 µM | > 100 µM | > 100 µM | > 100 µM |  |  | > 100 µM | > 100 µM | 51.1 µM |
| COC(=O)c1cc2c3ccccc3n3c(=O)c4cc5ccccc5nc4c(n1)c23 | > 100 µM | > 100 µM | > 100 µM | > 100 µM | > 100 µM | > 100 µM | > 100 µM | > 100 µM |  |  | > 100 µM | > 100 µM | > 100 µM | > 100 µM | > 100 µM | > 100 µM | > 100 µM | > 100 µM | > 100 µM | > 100 µM |
| O=C1[C@H]2ON(c3ccccc3)C(c3ccccc3)[C@H]2C(=O)N1c1ccc(Cc2ccc(N3C(=O)[C@@H]4ON(c5ccccc5)C(c5ccccc5)[C@@H]4C3=O)cc2)cc1 (stereo partly drawn) |  | > 100 µM |  | > 100 µM |  | > 100 µM |  | > 100 µM |  | > 100 µM |  | > 100 µM |  | > 100 µM | > 100 µM |  |  |  |  |  |
| O=C1O/C(=C\c2ccccc2)N(c2ccccc2)C1=O |  | > 100 µM |  | > 100 µM |  | > 100 µM |  | > 100 µM |  | > 100 µM |  | > 100 µM |  | > 100 µM |  |  | > 100 µM |  | > 100 µM |  |
| O=C(c1ccccc1)c1c(-c2ccccc2)sc2nc3ccccc3nc12 |  | > 100 µM |  | > 100 µM |  | > 100 µM |  |  |  | > 100 µM |  | > 100 µM |  | > 100 µM | > 100 µM |  |  |  |  |  |
| CC(=O)OC1CCn2nnc(CO)c21 (stereo not drawn) |  | > 100 µM |  | > 100 µM |  | > 100 µM |  | > 100 µM |  |  |  | > 100 µM |  | > 100 µM | > 100 µM |  |  |  |  |  |
| C[C@]12CCC(=O)C(O)=C1CC[C@@H]1C2CC[C@]2(C)NC(=O)CCC12 (stereo partly drawn) |  |  |  | > 100 µM |  | > 100 µM |  | > 100 µM |  | > 100 µM |  | > 100 µM |  | > 100 µM | > 100 µM |  |  |  |  |  |
| CC(=O)c1cccc(C)c1C(=O)O |  | > 100 µM |  | > 100 µM |  | > 100 µM |  | > 100 µM |  | > 100 µM |  | > 100 µM |  | > 100 µM | > 100 µM |  |  |  |  |  |
| Cc1cc(-c2nc3sccn3c2/C=N/N=C(N)N)c(C)s1 |  |  | 15.7 µM | 30.9 µM | 18 µM | 32.9 µM | 21.1 µM | 36.9 µM | 17.4 µM | 32.1 µM | 17.7 µM | 33.7 µM | 13.2 µM | 26 µM | 26.3 µM | 15.3 µM | 29 µM |  |  | 13.5 µM |
| O=C1C=CC(=O)C12CCc1ccccc12 |  | > 100 µM |  | > 100 µM |  | > 100 µM |  | > 100 µM |  | > 100 µM |  | > 100 µM |  | > 100 µM | > 31.6 µM |  |  |  |  |  |
| CC(=O)CC(N)=O |  | > 100 µM |  | > 100 µM |  | > 100 µM |  | > 100 µM |  | > 100 µM |  | > 100 µM |  | > 100 µM | > 100 µM |  |  |  |  |  |
| Cc1cccc(C)c1CO |  | > 100 µM |  | > 100 µM |  | > 100 µM |  | > 100 µM |  | > 100 µM |  | > 100 µM |  | > 100 µM | > 100 µM |  |  |  |  |  |
| COc1ccc(NC(=O)CC/C(CC(=O)C(C)(C)C)=N\NC(=O)C(=O)NN)cc1 |  | > 100 µM |  | > 100 µM |  | > 100 µM |  | > 100 µM |  | > 100 µM |  | > 100 µM |  | > 100 µM | > 100 µM |  |  |  |  |  |
